Results on one compound are retold here after patent US7579432B2, “Cyclic peptides as G-protein-coupled receptor antagonists” (Promics Pty Limited, priority 2001, dated 2009).

One test deals with C5a-induced neutropenia. The test can be described thus: C5a-induced neutropenia after topical administration. It counts as in vivo. The conditions noted are these: topical 10 mg/per rat in 50% propylene glycol and 50% distilled H2O; C5a 2 μg/kg i.v. The procedure:
Female Wistar rats weighing between 200-250 g were used for in vivo testing of all C5a receptor antagonists. Rats were anaesthetized using the procedure described above, and transferred on to a heating pad to ensure that body temperature was maintained throughout the experiment. A catheter was inserted in the femoral vein, secured with a suture and flushed with 100 μL of heparinised saline. Rats were dosed with either the antagonist or vehicle, intravenously (1 mg kg^−1 in 200 μL saline containing 10% ethanol, 10 min prior to LPS challenge) or topically ([…] challenge) Rats were infused i.v via the femoral catheter with either LPS (1 mg kg^−1 i.v in 100 μL saline), recombinant human C5a (2 μgkg^−1 in 100 μL), or vehicle control 10 minutes after the iv administration or 60 min after topical administration, of antagonist or vehicle control. All agents infused i.v were injected over a 2 min period, and were followed with a subsequent injection of 100 μL of saline to ensure complete delivery of the drug.
Whole blood samples (0.1 mL) were collected from the tail vein at the time of drug and LPS or C5a administration. […] The number of PMNs was counted on a haemocytometer. The number of cells at each time point was calculated as a percentage of the total number of cells at time zero, prior to complement challenge or LPS. […]

Test [1] deals with antigen-induced arthritis. The test is described as follows: Rat monoarticular antigen-induced arthritis. It counts as in vivo. As to the method:
Female Wistar rats (150-250 g) were obtained from the Central Animal Breeding House, University of Queensland. […] Each rat received a subcutaneous injection of this suspension (0.5 mL) on days 1 and 7. On day 12-28, rats were separated into separate cages, and body weight and food and water intake monitored daily. Rats received either ordinary tap water or drinking water containing AcF-[OPdChaWR] (1). […] Rats were euthanased on day 28, and whole blood collected into an Eppendorf tube and allowed to clot on ice. Blood samples were centrifuges (11,000 rpm×3 min) and serum collected and stored at −20° C. until analysis of serum cytokines using an ELISA. Each knee capsule was lavaged with 100 μL saline, and the total cell count determined using a haemocytometer. In addition, an aliquot of the knee joint lavage fluid was dropped onto a glass slide, and allowed to air dry. Once dry, cells were stained with a differential stain (Diff Quick) and a differential cell count was performed using a 40× dry lens microscope. The remaining lavage fluids from each joint were stored at −20° C. until later analysis of intra-articular cytokine levels using an ELISA. Each knee joint was removed and the skin was split with a scalpel blade to allow fixation. Knee samples were stored in 10% buffered formalin for≧10 d. Knees were then rinsed with distilled water and placed in a saturated solution of EDTA solution for 21 d for decalcification before being embedded in paraffin wax. Knee tissue samples were prepared using standard histological techniques as described above in Example 6 and stained using an heamotoxylin and eosin stain. Histological slides were analysed in a blinded fashion. […] In no samples was there evidence of significant bone erosion. Samples of serum and synovial fluid were thawed on the day of ELISA analysis for TNFα and IL-6 levels. Concentrations were determined from a standard curve, using an ELISA as described previously in Example 6.

As for `CC(=O)N[C@@H](Cc1ccccc1)C(=O)N[C@H]1CCCNC(=O)[C@H](CCCNC(=N)N)NC(=O)[C@H](Cc2c[nH]c3ccccc23)NC(=O)[C@@H](CC2CCCCC2)NC(=O)[C@@H]2CCCN2C1=O` [Compound 1, Ac-Phe-[Orn-Pro-dCha-Trp-Arg]], the “neutropaenic effects of i.v. C5a” value with C5a-induced neutropenia is recorded as “prevent the neutropaenic effects of C5a”. In addition, the “arthritic right knee joint swelling” value in test [1] (given orally on Days −2 to +14) is “inhibition”. Also, in test [1] (oral), the “right knee joint IL-6 levels in joint lavage” value is listed as “inhibition” and the “right knee joint TNF-α levels in joint lavage” value is “inhibition”.
